# Experimental data: PubChem BioAssay (NCI)
#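 Five concentrations, 48 hours, 96-well plates. At the GI50, growth is halved. TGI: concentration producing complete growth inhibition.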
# System: TK-10 renal
# Test: NCI-60 cell line screen, 48 h
Structure (SMILES),GI50 [µM],TGI [µM]
Cc1ccc(Nc2nc(N)c(C(=O)c3ccc(C#N)cc3)s2)cc1,10.4,> 78.8
O=C1c2ccn(CCCCNC(CO)(CO)CO)c2C(=O)c2c1c(O)c1ccccc1c2O,0.517,1.72
COc1ccc(-c2cc(-c3cccn3C)c(C#N)c(N)n2)cc1OC,> 100,> 100
CN1CCc2c(Sc3ccc(C(=O)NO)cc3)c3ccccc3n2C1,2.62,8.19
COc1ccc(CNc2c3ccccc3nc3ccccc23)cc1OC,2.34,8.44
CN(C)c1ccc2nc3ccc(=O)cc-3sc2c1,13.8,> 77.7
CC(=O)c1c(CBr)n([O-])c2ccccc2[n+]1=O,5.44,16.6
c1ccc2c3ccn4cc5c(cc4c-3nc2c1)CCCC5,12.8,26
OCCCCC#Cc1ccccc1C#Cc1cccc(O)c1,19.2,38.2
COc1ccccc1/C=C/c1cnccn1,,> 10
CCN(CC)CC(C)(C)C(=O)/C=C/c1ccc(Cl)c(Cl)c1,1.67,3.04
COc1cc2c(cc1OC)C13CCN4CC5=CCOC6CC(=O)N2C1C6C5CC43O (stereo unspecified),,> 100
CN(C)Cc1c[nH]c2c1C(=O)c1c(c(O)c3ccccc3c1O)C2=O,5.08,19.7

# System: UACC-257 melanoma
# Test: NCI-60 cell line screen, 48 h
Structure (SMILES),TGI [µM],GI50 [µM]
N#CC1(C2SCCS2=O)C2=C(C(=O)c3ccccc3C2=O)N2CCCC21 (stereo unspecified),2.99,
Cc1n(Cc2ccc3ccccc3c2)cc[n+]1Cc1ccc2ccccc2c1,2.58,0.588
O=C(O)Cc1c(O)ccc2ccccc12,> 100,
O=C1/C(=C\c2cccn2Cc2ccccc2)c2ccccc2N1c1c(Cl)cccc1Cl,> 100,> 100
Cc1sc2nc(NCCc3c[nH]c4ccc(Cl)cc34)[nH]c(=O)c2c1C,6.34,2.14
CSC1(CC(=O)N(C)C)C(=O)Nc2ccccc21 (stereo unspecified),> 100,
O=C(O)c1c(-c2nccc3ccccc23)[nH]c(-c2ccccc2)c1S(=O)(=O)O,> 100,
COc1ccc(/C=c2/sc3n(c2=O)C(c2ccc(OC)c(OC)c2)C2=C(N=3)c3cc(F)ccc3OC2)cc1 (stereo unspecified),> 88.8,35
O=C(O)c1cc(O)c2c(c1)C(C1c3cc(C(=O)O)cc(O)c3C(=O)c3c(OC4OC(CO)C(O)C(O)C4O)cccc31)c1cccc(OC3OC(CO)C(O)C(O)C3O)c1C2=O (stereo unspecified),> 100,> 100
O=C(CN(C1CCCCC1)C1CCCCC1)Nc1ccc(S(=O)(=O)c2ccc(NC(=O)CN(C3CCCCC3)C3CCCCC3)cc2)cc1,3.66,1.37
Cc1c[n+](Cc2ccc3ccccc3c2)cn1Cc1ccc2ccccc2c1,3.16,1.46
Nc1nc(Br)nc2c1ncn2C1CC(O)C(CO)O1 (stereo unspecified),> 100,27.3
CCOC(=O)N1CCN(C(=O)c2ccc(C(F)(F)F)nc2Nc2cc(Cl)ccc2C)CC1,> 100,27.2
Cc1ccc(Nc2nc(N)c(C(=O)c3ccc(C#N)cc3)s2)cc1,> 100,33.3
O=C1c2ccn(CCCCNC(CO)(CO)CO)c2C(=O)c2c1c(O)c1ccccc1c2O,24.6,7.71
COc1ccc(-c2cc(-c3cccn3C)c(C#N)c(N)n2)cc1OC,> 100,> 100
CN1CCc2c(Sc3ccc(C(=O)NO)cc3)c3ccccc3n2C1,9.1,1.75
COc1ccc(CNc2c3ccccc3nc3ccccc23)cc1OC,8.22,2.73
CN(C)c1ccc2nc3ccc(=O)cc-3sc2c1,3.29,0.38
CC(=O)c1c(CBr)n([O-])c2ccccc2[n+]1=O,32.9,16.7
c1ccc2c3ccn4cc5c(cc4c-3nc2c1)CCCC5,38.2,5.42
OCCCCC#Cc1ccccc1C#Cc1cccc(O)c1,33.1,18.1
O=C(N/N=C\c1cc(Br)ccc1O)c1ccncc1,15.9,2.33
COc1ccccc1/C=C/c1cnccn1,> 10,
CCN(CC)CC(C)(C)C(=O)/C=C/c1ccc(Cl)c(Cl)c1,3.64,2.07
COc1cc2c(cc1OC)C13CCN4CC5=CCOC6CC(=O)N2C1C6C5CC43O (stereo unspecified),> 100,
CN(C)Cc1c[nH]c2c1C(=O)c1c(c(O)c3ccccc3c1O)C2=O,35.4,19.7

# System: UACC-62 melanoma
# Test: NCI-60 cell line screen, 48 h
Structure (SMILES),TGI [µM],GI50 [µM]
N#CC1(C2SCCS2=O)C2=C(C(=O)c3ccccc3C2=O)N2CCCC21 (stereo unspecified),6.54,
Cc1n(Cc2ccc3ccccc3c2)cc[n+]1Cc1ccc2ccccc2c1,2.42,0.843
O=C(O)Cc1c(O)ccc2ccccc12,> 100,
O=C1/C(=C\c2cccn2Cc2ccccc2)c2ccccc2N1c1c(Cl)cccc1Cl,> 100,3.28
Cc1sc2nc(NCCc3c[nH]c4ccc(Cl)cc34)[nH]c(=O)c2c1C,12.7,2.96
CSC1(CC(=O)N(C)C)C(=O)Nc2ccccc21 (stereo unspecified),> 100,
O=C(O)c1c(-c2nccc3ccccc23)[nH]c(-c2ccccc2)c1S(=O)(=O)O,> 100,
COc1ccc(/C=c2/sc3n(c2=O)C(c2ccc(OC)c(OC)c2)C2=C(N=3)c3cc(F)ccc3OC2)cc1 (stereo unspecified),> 63.3,17.9
O=C(O)c1cc(O)c2c(c1)C(C1c3cc(C(=O)O)cc(O)c3C(=O)c3c(OC4OC(CO)C(O)C(O)C4O)cccc31)c1cccc(OC3OC(CO)C(O)C(O)C3O)c1C2=O (stereo unspecified),> 100,> 100
O=C(CN(C1CCCCC1)C1CCCCC1)Nc1ccc(S(=O)(=O)c2ccc(NC(=O)CN(C3CCCCC3)C3CCCCC3)cc2)cc1,2.05,0.595
Cc1c[n+](Cc2ccc3ccccc3c2)cn1Cc1ccc2ccccc2c1,3.12,1.41
Nc1nc(Br)nc2c1ncn2C1CC(O)C(CO)O1 (stereo unspecified),> 100,2.4
Nc1nc(Nc2ccccc2)c2ncn(Cc3cc4c(cc3Br)OCO4)c2n1,28.4,0.0537
CCOC(=O)N1CCN(C(=O)c2ccc(C(F)(F)F)nc2Nc2cc(Cl)ccc2C)CC1,25.6,10
Cc1ccc(Nc2nc(N)c(C(=O)c3ccc(C#N)cc3)s2)cc1,> 100,0.416
O=C1c2ccn(CCCCNC(CO)(CO)CO)c2C(=O)c2c1c(O)c1ccccc1c2O,0.931,
COc1ccc(-c2cc(-c3cccn3C)c(C#N)c(N)n2)cc1OC,> 100,86.3
CN1CCc2c(Sc3ccc(C(=O)NO)cc3)c3ccccc3n2C1,3.65,1.62
COc1ccc(CNc2c3ccccc3nc3ccccc23)cc1OC,7.46,2.42
CN(C)c1ccc2nc3ccc(=O)cc-3sc2c1,8.69,1.32
CC(=O)c1c(CBr)n([O-])c2ccccc2[n+]1=O,28.6,14.9
c1ccc2c3ccn4cc5c(cc4c-3nc2c1)CCCC5,14.4,3.25
OCCCCC#Cc1ccccc1C#Cc1cccc(O)c1,26.9,13.3
O=C(N/N=C\c1cc(Br)ccc1O)c1ccncc1,7.4,1.45
COc1ccccc1/C=C/c1cnccn1,> 10,
CCN(CC)CC(C)(C)C(=O)/C=C/c1ccc(Cl)c(Cl)c1,3.59,1.66
COc1cc2c(cc1OC)C13CCN4CC5=CCOC6CC(=O)N2C1C6C5CC43O (stereo unspecified),> 100,
CN(C)Cc1c[nH]c2c1C(=O)c1c(c(O)c3ccccc3c1O)C2=O,30.1,16.3
